The source of these data is paper PMC8005090, “Bioanalytical Method Development and Validation Study of Neuroprotective Extract of Kashmiri Saffron Using Ultra-Fast Liquid Chromatography-Tandem Mass Spectrometry (UFLC-MS/MS): In Vivo Pharmacokinetics of Apocarotenoids and Carotenoids” (Molecules, 2021).

Series [1] in a line: Oral pharmacokinetics of CSE constituents in rat plasma (UFLC-MS/MS). The format is in vivo, Sprague–Dawley rats. The note with it: single oral CSE 40 mg/kg, n = 6, mean ± SEM. The method, then:
The PK parameters were calculated by non-compartmental analysis. The PK parameters, such as maximum plasma concentration (Cmax) and the time to reach the maximum plasma concentration (Tmax), were derived directly from the experimental data. The trapezoidal equation calculated the areas under the plasma concentration-time curves from 0 to the time of the last quantifiable concentration (AUC0−t). The AUC was extrapolated to infinity AUC0-∞ using Ct/Kel, where Ct is the last measured MET concentration. Kel is the elimination rate constant determined from the terminal slope of the log concentration-time plot. The Kel was obtained from the linear regression curve slope by fitting the terminal concentrations’ natural logarithms versus time. The terminal elimination half-life (t1/2) was calculated by 0.693/Kel. The clearance (CL) was calculated as the quotient of the dose (D) and AUC0−∞. All values were expressed as mean ± SEM.
Male Sprague–Dawley rats (250–300 g) were purchased from Crystal Biological Solution, Pune, Maharashtra, India. The animal studies were sanctioned by the Animal Ethics Committee of Crystal Biological Solution, Pune. It was carried out following the Animal Ethics Procedures and Guidelines of Control and Supervision of Experiments on Animals (CPCSEA) committee requirements. Animals were housed 3–4 per cage in rooms with constant temperature (25 ± 2 °C), humidity (50 ± 20%), and 12 h dark-light cycle. All animals in the oral group fasted overnight before the dosing, and food was provided 8 h post-dose, and water was ad libitum. The investigational CSE was fed orally to an individual rat as per its body weight.
The UFLC-MS/MS analysis was performed on a Shimadzu UFLC system (Kyoto, Japan) consisting of a DGU-20A5R degasser, LC-30AD pump, SIL-30AC autosampler, CTO-20AC column oven. The chromatographic separation was carried out in a single analytical run divided into loading and eluting phases by alternating the electronic valve. At the loading phase (−1–0 min), the auto-sampler was responsible for injecting 50 µL of the sample. The LC-30AD pump was responsible for delivering water containing 0.1% formic acid to the pre-column (Phenomenex Security Guard ULTRA with C8 Cartridge) at 0.8 mL/min to remove protein and retain analytes. At the eluting phase (0–12 min), the retained components were flushed from the pre-column into the analytical column (Dr. Maisch GmbH Reprosil Gold XBD C8, 50 mm × 4.6 mm, i.d., 1.8 µm) eluting as per time programmed gradient. The flow rate of the mobile phase was 0.8 mL/min. The mobile phase consists of a mixture of water containing 0.1% formic acid (%v/v) (A) and 100% acetonitrile (B). The gradient elution program was carried out for chromatographic separation: 0.01–1.91 min, 20% B; 1.91–5.91 min, 2090% B; 5.91–6.91 min, 90–80% B; 6.91–8.24 min, 80–20% B; and 8.24–12 min, 20% B. The column oven temperature was set at 30 °C. The MS/MS analysis was carried out on an LCMS-8045 triple-quadrupole mass spectrometer (Shimadzu, Kyoto, Japan) equipped with positive and negative electrospray ionization (ESI) interfaces using the MRM mode. The compound and source dependent parameters were defined as follows: nitrogen was used as nebulizing and drying gas; argon was used as the collision gas. Quadruple voltage was set at Q1 RF gain: 4998 Q1 RF offset 4990 and Q1 post-rod bias: −5.0 V CID CELL exit lens: −4.0 V, interface: ESI, interface temperature: 350 °C, desolvation line (DL) temperature: 250 °C, nebulizing gas flow: 2.50 L/min, heating gas flow: 10.00 L/min heat block: 300 °C; drying gas flow: 10.00 L/min.
An aliquot of 45 µL of rat plasma was spiked with each 5 µL of IS1 and IS2, and 200 µL of methanol was added, vortexed for 1–2 min, then centrifuged for 10 min at 2000 RPM. Collect the supernatant into HPLC vials and injected it into the UFLC-MS/MS system for analysis. […]

The nature of series [2]: Stability of analytes in rat plasma (autosampler, room temperature, freeze-thaw). It is filed as in vitro ADME. The note with it: for analyte stability in plasma: LQC and HQC, processed plasma samples, stable under restricted storage conditions; for Room Temperature Stability (%, mean ± SD) / Autosampler Stability (%, mean ± SD) / Freeze-Thaw Stability (%, mean ± SD): rat plasma, n = 6; for Room Temperature Stability (%, mean ± SD): ambient temperature 4 h; for Autosampler Stability (%, mean ± SD): autosampler 8 °C for 24 h; for Freeze-Thaw Stability (%, mean ± SD): three freeze-thaw cycles at −20 ± 4 °C. The procedure:
The stability was performed at different sets of working and storage conditions. […] The stability conditions of the method studied were at ambient temperature for 4 h (room-temperature stability), in the autosampler at 8 °C conditions for 24 h (autosampler stability), and with three freeze-thaw cycles at −20 ± 4 °C condition (freeze-thaw stability). The samples were prudent to be stable if the measured concentration was within ±15% of the nominal concentration.

Another series relates to mice. Details: method as in PMID 28471166, PMID 31459089, PMID 33404280. Conditions: by inducing autophagy mediated by AMPK pathway activation; cited from earlier work.
Setting [3] is: male, Sprague-Dawley, rat, plasma, po, 40 mg/kg.
Where [4] appears, read: male, Sprague-Dawley, rat, plasma, po, 40 mg/kg, read-out: Tmax.

Each structure is given as a SMILES string. Where two headings read alike, the source gives them in different places.

As usually defined, the half-life is the time in which the quantity being followed falls by half. A low value points to fast loss. One may read the Tmax as the time at which the peak concentration occurs. The term AUC(0-inf) denotes total exposure, with the tail of the curve extrapolated. Lower therefore signals low exposure. By AUC(0-t) is commonly meant the area under the concentration-time curve up to a stated or last time point. A lower AUC(0-t) goes with low exposure. For orientation: Cmax means the peak of the concentration-time curve. Compound `CC(/C=C/C=C(\C)C(=O)OC1OC(CO)C(O)C(O)C1O)=C\C=C\C=C(C)\C=C\C=C(/C)C(=O)OC1OC(COC2OC(CO)C(O)C(O)C2O)C(O)C(O)C1O` (stereo not drawn) [T3C, trans-3-Gg-crocin] gave a half-life in series [1] (setting [3]) of 4.6 ± 2.74 h. Moreover, the time of peak concentration (Tmax) in series [1] (setting [4]) stood at 3.5 ± 1.09 h. Moreover, in series [1] (male, Sprague-Dawley), the AUC(0-inf) came to 55.5 ± 31.2 ng·h/mL, the area under the curve AUC(0-t) was 20.4 ± 9.64 ng·h/mL and the peak concentration (Cmax) worked out at 7.59 ± 4.71 ng/mL. Further, in series [1], the CL is 114,958.33 ± 71,000.46 mL/h/kg and the Vd amounted to 325.573 ± 13.099 L/kg.
In series [1] (setting [3]), `CC1=C(C=O)C(C)(C)C[C@H](O[C@@H]2O[C@H](CO)[C@@H](O)[C@H](O)[C@H]2O)C1` [PIC, picrocrocin] gave a half-life of 0.793 ± 0.078 h. The Tmax in series [1] (setting [4]) stood at 0.67 h. In series [1] (male, Sprague-Dawley), this compound had an AUC(0-inf) of 3820 ± 257 ng·h/mL, an exposure AUC(0-t) of 3690 ± 274 ng·h/mL and a peak concentration (Cmax) of 2720 ± 231 ng/mL. For the same compound, in series [1], the CL came to 1935.88 ± 123.45 mL/h/kg, the time to peak (Tmax) was determined as 0.792 ± 0.10 h and the Vd came out at 2.258 ± 0.3168 L/kg. Moreover, the “analyte stability in plasma” value in series [2] was “stable”. In series [2] (nominal 30.00 ng/mL (LQC)), the “Room Temperature Stability (%, mean ± SD)” value stood at 30.40 ± 0.92 ng/mL; the “Autosampler Stability (%, mean ± SD)” value was found to be 29.52 ± 1.26 ng/mL; the “Freeze-Thaw Stability (%, mean ± SD)” value amounted to 29.98 ± 1.66 ng/mL. Moreover, in series [2] (nominal 2400.00 ng/mL (HQC)), the “Room Temperature Stability (%, mean ± SD)” value amounted to 2406.19 ± 94.01 ng/mL; the “Autosampler Stability (%, mean ± SD)” value is recorded as 2463.69 ± 113.42 ng/mL; the “Freeze-Thaw Stability (%, mean ± SD)” value is reported as 2498.53 ± 111.53 ng/mL.
The compound `CC(=C/C=C/C=C(C)/C=C/C=C(\C)C(=O)OC1OC(COC2OC(CO)C(O)C(O)C2O)C(O)C(O)C1O)/C=C/C=C(\C)C(=O)OC1OC(COC2OC(CO)C(O)C(O)C2O)C(O)C(O)C1O` (stereo not drawn) [C4C, cis-4-GG-crocin] gave a half-life in series [1] (setting [3]) of 1.57 ± 1.57 h. Further, the time of peak concentration (Tmax) in series [1] (setting [4]) stood at 3.25 ± 1.05 h. In addition, in series [1] (male, Sprague-Dawley), the area under the curve AUC(0-inf) was 407 ± 187 ng·h/mL, the AUC(0-t) was 396 ± 113 ng·h/mL and the Cmax was 86.1 ± 15.7 ng/mL. In series [1], this compound gave a CL of 326.37 ± 445.89 mL/h/kg and a Vd of 4.29 ± 1.94 L/kg.
Take `CC(/C=C/C=C(\C)C(=O)O)=C\C=C\C=C(C)\C=C\C=C(/C)C(=O)O` [TCT, trans crocetin]: the memory function entry in the series with mice is “improved memory function”. Moreover, the half-life in series [1] (setting [3]) is > 11 h. Besides, the time of peak concentration (Tmax) in series [1] (setting [4]) stood at 6.83 ± 1.68 h. Further, in series [1] (male, Sprague-Dawley), the AUC(0-inf) stood at 30700 ng·h/mL, the area under the curve AUC(0-t) is 23600 ng·h/mL and the Cmax was 2080 ± 374 ng/mL. Moreover, in series [1], the time to peak (Tmax) is given as 6.84 ± 1.69 h. Besides, in series [2], the “analyte stability in plasma” value is given as “stable”.
For `CC1=C(C=O)C(C)(C)CC=C1` [SAF, safranal], the “analyte stability in plasma” value in series [2] was “stable”.
In turn, `CC(/C=C/C=C(\C)C(=O)OC1OC(COC2OC(CO)C(O)C(O)C2O)C(O)C(O)C1O)=C\C=C\C=C(C)\C=C\C=C(/C)C(=O)OC1OC(COC2OC(CO)C(O)C(O)C2O)C(O)C(O)C1O` (stereo not drawn) [T4C, trans-4-GG-crocin] had a half-life in series [1] (setting [3]) of 3.36 ± 1 h. Moreover, the Tmax in series [1] (setting [4]) is 3.5 ± 0.57 h. In series [1] (male, Sprague-Dawley), this compound gave an AUC(0-inf) of 370 ± 75.6 ng·h/mL, an AUC(0-t) of 277 ± 67.7 ng·h/mL and a Cmax of 49.3 ± 11.2 ng/mL. Besides, in series [1], the CL is given as 19,568.35 ± 4835.41 mL/h/kg and the Vd was determined as 69.250 ± 16.150 L/kg.
For `CC(/C=C/C=C(\C)C(=O)OC1OC(CO)C(O)C(O)C1O)=C\C=C\C=C(C)\C=C\C=C(/C)C(=O)OC1OC(CO)C(O)C(O)C1O` (stereo not drawn) [T2C, trans-2-gg-crocin], the half-life in series [1] (setting [3]) was 5.75 ± 0.73 h. The time to peak (Tmax) in series [1] (setting [4]) was 4.34 ± 0.51 h. In series [1] (male, Sprague-Dawley), this compound had an AUC(0-inf) of 1680 ± 238 ng·h/mL, an AUC(0-t) of 1530 ± 197 ng·h/mL and a Cmax of 160 ± 15.2 ng/mL. In series [1], this compound had a CL of 234.77 ± 31.12 mL/h/kg and a Vd of 2.006 ± 0.457 L/kg.
